Measured values taken from patent publication EP0794185A1, “BICYCLIC THIAZOLE COMPOUND” (MEIJI SEIKA KABUSHIKI KAISHA, priority 1994, dated 1996).

Tests used:
dopamine-D2 receptor = target: T1, dopamine-D2 receptor (Rattus norvegicus, UniProt P61169); experiment: Binding to dopamine-D2 receptor, [3H]spiperone, P2 fraction of rat cerebral corpus striatum; settings: read-out: Inhibition at 10^-7 M (%)
T1 construct: using a P2 fraction of a rat cerebral corpus striatum; from tissue; host or cells: rat cerebral corpus striatum, P2 membrane fraction
T1 sequence (P61169 whole entry): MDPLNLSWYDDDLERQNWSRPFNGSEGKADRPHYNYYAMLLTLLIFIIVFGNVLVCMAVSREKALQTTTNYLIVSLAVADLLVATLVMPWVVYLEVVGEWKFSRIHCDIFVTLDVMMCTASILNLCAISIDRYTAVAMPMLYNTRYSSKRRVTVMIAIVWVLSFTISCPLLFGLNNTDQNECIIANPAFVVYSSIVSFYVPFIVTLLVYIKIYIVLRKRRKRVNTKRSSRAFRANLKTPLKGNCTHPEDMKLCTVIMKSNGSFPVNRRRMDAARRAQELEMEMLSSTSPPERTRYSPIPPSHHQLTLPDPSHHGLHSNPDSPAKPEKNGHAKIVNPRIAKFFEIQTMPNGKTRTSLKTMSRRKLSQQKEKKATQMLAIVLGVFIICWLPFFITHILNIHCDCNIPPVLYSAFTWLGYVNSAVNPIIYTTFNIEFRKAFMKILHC
Experimental: The affinity of the compound of the present invention for D2 receptors was studied using a P2 fraction of a rat cerebral corpus striatum. The rat cerebral corpus striatum was homogenized in 0.32 M sucrose in an amount of 10 times that of the rat cerebral corpus striatum, and the homogenate was centrifuged at 900 x g for 10 min. […] An incubation buffer (50 mM Tris, 120 mM NaCl, 5 mM KCl, 1 mM MgCl2, 1 mM CaCl2, pH 7.4) was added to the sediment, and the mixture was then centrifuged at 39,000 x g for 20 min. The sediment was obtained as a P2 fraction. The P2 fraction was incubated at 37°C for 30 min in a buffer containing 0.1 nM [^3H]spiperone and the compound of the present invention with various concentrations. The reaction solution was filtered through a Whatman GF/B glass filter, and the amount of bound [^3H]spiperone was measured by a liquid scintillation counter.

[1] = test system: hyperlocomotion induced by methamphetamine in mice; experiment: Anti-methamphetamine effect: inhibition of hyperlocomotion induced by methamphetamine in mice; assay type: in vivo, Male ddY mice; settings: Mus musculus, 0.25 h, ip, 15 min after methamphetamine 2 mg/kg sc, locomotion measured for thirty minutes
Experimental: The antipsychotic activity of the compound according to the present invention was assayed by an index the inhibitory activity on the stimulation of hyperlocomotion induced by methamphetamine in mice. Male ddY mice having a weight of 25 - 35 g were divided into groups each consisting of 3 - 6 animals. The mouse was subcutaneously administered with methamphetamine (2 mg/kg). Fifteen minutes after this administration, the compound of the present invention was intraperitoneally administered. After further fifteen minutes, the animal was then placed in a transparent acrylic box (30 cm x 30 cm x 30 cm) mounted on an apparatus to measure the locomotion for thirty minutes (MUROMACHI KIKAI, ANIMEX AUTO MK-110).

catalepsy = experiment: Cataleptogenic effect (extrapyramidal effect, catalepsy provoking activity) in mice; settings: male, ddY, mouse, in vivo, ip, catalepsy observed after 20, 30 and 40 minutes
Experimental: The extrapyramidal effect of the compounds according to the present invention was assayed by an index the catalepsy provoking activity as a representative pharmacological evaluation method of the extrapyramidal effect. Male ddY mice having a body weight of 25 - 35 g which were divided into groups each consisting of 3 - 6 animals were subjected to the test. The compound of the present invention was administered intraperitoneally to observe catalepsy after 20, 30 and 40 minutes, respectively. Catalepsy was judged as positive in such cases that a mouse whose front paw was compulsorily hung up on an iron bar having a diameter of 1 mm and horizontally laid at a height of 3 cm remained in such a strained posture for more than 30 seconds. […]

serotonin-5-HT2 receptor = target: T2, serotonin-5-HT2 receptor (Rattus norvegicus, UniProt P14842); experiment: Binding to serotonin-5-HT2 receptor, [3H]ketanserin, P2 fraction of rat cerebral cortex; settings: read-out: Inhibition at 10^-9 M (%)
T2 construct: a 5-HT2 receptor of a rat cerebral cortex; from tissue; host or cells: rat cerebral cortex, P2 membrane fraction
T2 sequence (P14842 whole entry): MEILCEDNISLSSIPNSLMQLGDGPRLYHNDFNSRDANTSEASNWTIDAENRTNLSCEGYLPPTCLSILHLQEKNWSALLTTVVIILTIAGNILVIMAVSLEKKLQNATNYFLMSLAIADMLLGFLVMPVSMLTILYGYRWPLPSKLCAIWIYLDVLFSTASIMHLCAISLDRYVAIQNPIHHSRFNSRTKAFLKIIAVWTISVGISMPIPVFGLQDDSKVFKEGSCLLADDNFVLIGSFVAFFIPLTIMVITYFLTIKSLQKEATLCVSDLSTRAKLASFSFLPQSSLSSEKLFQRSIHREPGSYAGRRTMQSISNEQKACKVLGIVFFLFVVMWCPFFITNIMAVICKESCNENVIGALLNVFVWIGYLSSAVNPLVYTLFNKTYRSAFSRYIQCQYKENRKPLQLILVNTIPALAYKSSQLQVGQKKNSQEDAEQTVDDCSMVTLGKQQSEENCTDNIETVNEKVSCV
Experimental: The affinity of the compound of the present invention for a 5-HT2 receptor of a rat cerebral cortex was assayed as follows. A P2 fraction was prepared in the same manner as described above in connection with the above (a). The P2 fraction was incubated at 37°C for 15 min in a 50 mM Tris/HCl buffer (pH 7.4) containing 1 nM [^3H]ketanserin and the compound of the present invention with various concentrations, and the amount of bound [^3H]ketanserin was then measured.

inhibition at 0.1 µM (dopamine-D2 receptor) | SMILES | ED50 [1] | ED50 (catalepsy) | inhibition at 0.001 µM (serotonin-5-HT2 receptor)
95.2% | Cc1cc(=O)n2c(C)c(CCN3CCC(c4csc5cc(F)ccc45)CC3)sc2n1 [Example 8, 3,7-Dimethyl-2-[2-[4-(6-fluoro-1-benzothiophen-3-yl)-1-piperidinyl]ethyl]-5H-thiazolo[3,2-a]pyrimidin-5-one] | – | – | –
– | Cc1cn2c(C)c(CCN3CCC(c4noc5cc(F)ccc45)CC3)sc2n1 [Example 11, 3,6-Dimethyl-2-[2-[4-(6-fluoro-1,2-benzisoxazol-3-yl)-1-piperidinyl]ethyl]imidazo[2,1-b]thiazole] | 0.12 mg/kg | 3.3 mg/kg | –
– | CN(C)CCCN1c2ccccc2Sc2ccc(Cl)cc21 [Chlorpromazine, chlorpromazine, reference compound] | 1.1 mg/kg | 6.2 mg/kg | –
– | Cc1cc(=O)n2c(C)c(CCN3CCC(c4noc5cc(F)ccc45)CC3)sc2n1 [Example 4, 3,7-Dimethyl-2-[2-[4-(6-fluoro-1,2-benzisoxazol-3-yl)-1-piperidinyl]ethyl]-5H-thiazolo[3,2-a]pyrimidin-5-one] | 0.07 mg/kg | 1.2 mg/kg | –
– | O=C(CCCN1CCC(O)(c2ccc(Cl)cc2)CC1)c1ccc(F)cc1 [Haloperidol, haloperidol, reference compound] | 0.2 mg/kg | 1.3 mg/kg | –
– | Cc1cc(=O)n2c(CCN3CCC(c4noc5cc(F)ccc45)CC3)csc2n1 [Example 20, 3-[2-[4-(6-Fluoro-1,2-benzisoxazol-3-yl)-1-piperidinyl]ethyl]-5H-7-methylthiazolo[3,2-a]pyrimidin-5-one] | 0.04 mg/kg | – | 66.3%
